Results on 21 compounds are retold here after US8541397B2, “Alkyne and alkene derivatives as sphingosine 1-phosphate-1 receptor modulators” (Allergan, Inc., priority 2010, dated 2013).

In this assay the target is T1, human S1P1 receptor (Homo sapiens, UniProt P21453).
T1 construct: expressed in transfected cells; membranes used
T1 sequence (P21453 whole entry): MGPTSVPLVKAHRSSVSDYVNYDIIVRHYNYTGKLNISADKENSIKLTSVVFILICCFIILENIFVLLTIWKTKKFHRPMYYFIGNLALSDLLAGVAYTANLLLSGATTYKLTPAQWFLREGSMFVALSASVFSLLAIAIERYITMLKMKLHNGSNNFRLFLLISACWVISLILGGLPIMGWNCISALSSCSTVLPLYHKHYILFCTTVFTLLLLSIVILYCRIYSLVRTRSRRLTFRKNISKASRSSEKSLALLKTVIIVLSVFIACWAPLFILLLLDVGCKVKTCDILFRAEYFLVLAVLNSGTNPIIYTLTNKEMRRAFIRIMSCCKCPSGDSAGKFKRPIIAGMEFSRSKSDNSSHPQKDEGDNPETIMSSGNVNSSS
Description: GTP γ35S binding assay for S1P1 activity. It is filed as biochemical. As to conditions: activity potency, S1P1 receptor from GTP γ35S binding; membranes; test compounds 0.08 to 5,000 nM. The method, then: Compounds were synthesized and tested for S1P1 activity using the GTP γ^35S binding assay. These compounds may be assessed for their ability to activate or block activation of the human S1P1 receptor in cells stably expressing the S1P1 receptor.
GTP γ^35S binding was measured in the medium containing (mM) HEPES 25, pH 7.4, MgCl2 10, NaCl 100, dithitothreitol 0.5, digitonin 0.003%, 0.2 nM GTP γ^35S, and 5 μg membrane protein in a volume of 150 μl. Test compounds were included in the concentration range from 0.08 to 5,000 nM unless indicated otherwise. Membranes were incubated with 100 μM 5′-adenylylimmidodiphosphate for 30 min, and subsequently with 10 μM GDP for 10 min on ice. Drug solutions and membrane were mixed, and then reactions were initiated by adding GTP γ^35S and continued for 30 min at 25° C. Reaction mixtures were filtered over Whatman GF/B filters under vacuum, and washed three times with 3 mL of ice-cold buffer (HEPES 25, pH7.4, MgCl2 10 and NaCl 100). Filters were dried and mixed with scintillant, and counted for ^35S activity using a β-counter. Agonist-induced GTP γ^35S binding was obtained by subtracting that in the absence of agonist. Binding data were analyzed using a non-linear regression method. In case of antagonist assay, the reaction mixture contained 10 nM S1P in the presence of test antagonist at concentrations ranging from 0.08 to 5000 nM.
For `Cc1cccc(C(C#Cc2ccc(CNCCCP(=O)(O)O)cc2-c2ccco2)Cc2ccc(C)c(C)c2)c1` (stereo not drawn) [Compound 17, [3-({4-[4-(3,4-dimethylphenyl)-3-(3-methylphenyl)but-1-yn-1-yl]-3-(2-furyl)benzyl}amino)propyl]phosphonic acid], the midpoint of the response, the EC50, lay at 59 nM. With `Cc1cccc(C(C#Cc2ccc(CNCCC(=O)O)cc2)Cc2ccc(C)c(C)c2)c1` (stereo not drawn) [Compound 4, 3-({4-[4-(3,4-dimethylphenyl)-3-(3-methylphenyl)but-1-yn-1-yl]benzyl}amino)propanoic acid] the figure was 502 nM; with `Cc1cccc(C(C#Cc2ccc(CNCCCP(=O)(O)O)cc2-c2cccs2)Cc2ccc(C)c(C)c2)c1` (stereo not drawn) [Compound 15, [3-({4-[4-(3,4-dimethylphenyl)-3-(3-methylphenyl)but-1-yn-1-yl]-3-(2-thienyl)benzyl}amino)propyl]phosphonic acid], 179 nM. Compound `COc1cccc(C(C#Cc2ccc(CNCCCP(=O)(O)O)cc2)Cc2ccc(C)c(C)c2)c1` (stereo not drawn) [Compound 7, (3-{4-[4-(3,4-Dimethyl-phenyl)-3-(3-methoxy-phenyl)-but-1-ynyl]-benzylamino}-propyl)-phosphonic acid] had an EC50 of 160 nM. In the case of `Cc1ccc(CC(C#Cc2ccc(CNCCCP(=O)(O)O)cc2C)c2cccc(F)c2)cc1C` (stereo not drawn) [Compound 12, [3-({4-[4-(3,4-dimethylphenyl)-3-(3-fluorophenyl)but-1-yn-1-yl]-3-methylbenzyl}amino)propyl]phosphonic acid], the EC50 turned out to be 1890 nM. Compound `Cc1ccc(CC(C#Cc2ccc(OCC(O)CO)c(Cl)c2)c2cccc(F)c2)cc1C` (stereo not drawn) [Compound 20, 3-{2-chloro-4-[4-(3,4-dimethylphenyl)-3-(3-fluorophenyl)but-1-yn-1-yl]phenoxy}propane-1,2-diol] showed an EC50 of 600 nM. Turning to `Cc1ccc(CC(C#Cc2ccc(CNCCCP(=O)(O)O)cc2Br)c2cc(F)cc(F)c2)cc1C` (stereo not drawn) [Compound 16, [3-({3-bromo-4-[3-(3,5-difluorophenyl)-4-(3,4-dimethylphenyl)but-1-yn-1-yl]benzyl}amino)propyl]phosphonic acid], the EC50 was determined as 31 nM. This EC50 lies about 19-fold lower than the previous one. For `Cc1ccc(CC(/C=C/c2ccc(CNCCC(=O)O)cc2)c2cccc(F)c2)cc1C` (stereo not drawn) [Compound 22, 3-({4-[(1E)-4-(3,4-dimethylphenyl)-3-(3-fluorophenyl)but-1-en-1-yl]benzyl}amino)propanoic acid] the value was 265 nM; for `COc1cccc(C(C#Cc2ccc(CNCCC(=O)O)cc2)Cc2ccc(C)c(C)c2)c1` (stereo not drawn) [Compound 1, 3-({4-[4-(3,4-dimethylphenyl)-3-(3-methoxyphenyl)but-1-yn-1-yl]benzyl}amino)propanoic acid], 247 nM. With `Cc1ccc(CC(C#Cc2ccc(OCC(O)CO)c(Cl)c2)c2cccc(Cl)c2)cc1C` (stereo not drawn) [Compound 19, 3-{2-chloro-4-[3-(3-chlorophenyl)-4-(3,4-dimethylphenyl)but-1-yn-1-yl]phenoxy}propane-1,2-diol] the figure was 238 nM; with `Cc1ccc(CC(C#Cc2ccc(CNCCCP(=O)(O)O)cc2)c2cccc(Cl)c2)cc1C` (stereo not drawn) [Compound 8, (3-{4-[3-(3-Chloro-phenyl)-4-(3,4-dimethyl-phenyl)-but-1-ynyl]-benzylamino}-propyl)-phosphonic acid], 75.4 nM. For `Cc1ccc(CC(C#Cc2ccc(CNCCCP(=O)(O)O)cc2Br)c2cccc(F)c2)cc1C` (stereo not drawn) [Compound 13, [3-({3-bromo-4-[4-(3,4-dimethylphenyl)-3-(3-fluorophenyl)but-1-yn-1-yl]benzyl}amino)propyl]phosphonic acid] the value was 6 nM; for `Cc1ccc(CC(/C=C/c2ccc(CNCCCP(=O)(O)O)cc2)c2cccc(F)c2)cc1C` (stereo not drawn) [Compound 23, [3-({4-[(1E)-4-(3,4-dimethylphenyl)-3-(3-fluorophenyl)but-1-en-1 yl]benzyl}amino)propyl]phosphonic acid], 172 nM; for `Cc1ccc(CC(C#Cc2ccc(CNCCC(=O)O)cc2C)c2cccc(Cl)c2)cc1C` (stereo not drawn) [Compound 2, 3-{4-[3-(3-Chloro-phenyl)-4-(3,4-dimethyl-phenyl)-but-1-ynyl]-3-methyl-benzylamino}-propionic acid], 262 nM.

`Cc1cccc(C(C#Cc2ccc(CNCCCP(=O)(O)O)cc2C)Cc2ccc(C)c(C)c2)c1` (stereo not drawn) [Compound 11, [3-({4-[4-(3,4-dimethylphenyl)-3-(3-methylphenyl)but-1-yn-1-yl]-3 methylbenzyl}amino)propyl]phosphonic acid]: a half-maximal response (EC50) required 56 nM. As to `Cc1cccc(C(C#Cc2ccc(OCC(O)CO)c(Cl)c2)Cc2ccc(C)c(C)c2)c1` (stereo not drawn) [Compound 21, 3-{2-chloro-4-[4-(3,4-dimethylphenyl)-3-(3-methylphenyl)but-1-yn-1-yl]phenoxy}propane-1,2-diol], a half-maximal response (EC50) required 401 nM.

As for `Cc1ccc(CC(C#Cc2ccc(CNCCCP(=O)(O)O)cc2-c2ccco2)c2cccc(F)c2)cc1C` (stereo not drawn) [Compound 14, [3-({4-[4-(3,4-dimethylphenyl)-3-(3-fluorophenyl)but-1-yn-1-yl]-3-(2-furyl)benzyl}amino)propyl]phosphonic acid], a half-maximal response (EC50) required 239 nM. This EC50 lies about 1.7-fold lower than the previous one. With `Cc1cccc(C(C#Cc2ccc(CNCCCP(=O)(O)O)cc2)Cc2ccc(C)c(C)c2)c1` (stereo not drawn) [Compound 9, (3-{4-[4-(3,4-Dimethyl-phenyl)-3-m-tolyl-but-1-ynyl]-benzylamino}-propyl)-phosphonic acid] the figure was 117 nM; with `Cc1ccc(CC(C#Cc2ccc(CNCCCP(=O)(O)O)cc2C)c2cccc(Cl)c2)cc1C` (stereo not drawn) [Compound 10, (3-{4-[3-(3-Chloro-phenyl)-4-(3,4-dimethyl-phenyl)-but-1-ynyl]-3-methyl-benzylamino}-propyl)-phosphonic acid], 17.7 nM.

For `Cc1ccc(CC(C#Cc2ccc(CNCCC(=O)O)cc2)c2cccc(Cl)c2)cc1C` (stereo not drawn) [Compound 3, 3-({4-[3-(3-chlorophenyl)-4-(3,4-dimethylphenyl)but-1-yn-1-yl]benzyl}amino)propanoic acid], the EC50 stood at 66 nM. For `Cc1ccc(CC(C#Cc2ccc(CNCCC(=O)O)cc2)c2ccc(Cl)cc2)cc1C` (stereo not drawn) [Compound 5, 3-({4-[3-(4-chlorophenyl)-4-(3,4-dimethylphenyl)but-1-yn-1-yl]benzyl}amino)propanoic acid], the EC50 was 480 nM.
